The results in this text go back to US20100075942A1, “N-PHENYL-4-PYRIDIN-2-YL-BENZAMIDE DERIVATIVES AS HISTONE DEACYLASE (HDAC) INHIBITORS FOR THE TREATMENT OF CANCER” (ASTRAZENECA AB, priority 2005, published 2010).

The target of one experiment is T1, recombinant human HDAC1 (Homo sapiens, UniProt Q13547).
T1 construct: FLAG (C); made in house; host or cells: Hi5 insect cells
Kind of experiment: In vitro enzyme assay of recombinant HDAC1 (Test (a)). Format: biochemical. Particulars: recombinant human HDAC1 produced in Hi5 insect cells; acetylated histone H4 peptide, Fluor de Lys. How it is done: HDAC inhibitors were screened against recombinant human HDAC1 produced in Hi5 insect cells. The enzyme was cloned with a FLAG tag at the C-terminal of the gene and affinity purified using Anti-FLAG M2 agarose from SIGMA (A2220).
The deacetylase assays were carried out in a 50 μl reaction. HDAC1 (75 ng of enzyme) diluted in 15 μl of reaction buffer (25 mM TrisHC1 (pH 8), 137 mM NaCl, 2.7 mM KCl, 1 mM MgCl2) was mixed with either buffer alone (10 μl) or buffer containing compound (10 μl for 30 minutes at ambient temperature. 25 μM acetylated histone H4 peptide (KI 174 Biomol) diluted in 25 μl of buffer was then added to the reaction and incubated for one hour at ambient temperature. The reaction was stopped by addition of an equal volume (50 μl) Fluor de Lys developer (Biomol) containing Trichostatin A at 2 μM. The reaction was allowed to develop for 30 minutes at ambient temperature and then fluorescence measured at an excitation wavelength of 360 nm and an emission wavelength of 465 nm. IC50 values for HDAC enzyme inhibitors were determined by performing dose response curves with individual compounds and determining the concentration of inhibitor producing fifty percent decrease in the maximal signal (diluent control). • (b) In Vitro Assay of Inhibition of Proliferation in Whole Cells

A further experiment has as its system HCT116 cells. Kind of experiment: In vitro assay of inhibition of proliferation in whole cells, MTS (Test (b)). Format: cell-based. Particulars: Homo sapiens, HCT-116, 72 hours treatment. How it is done:
Inhibition of proliferation in whole cells was assayed using the Promega cell titer 96 aqueous proliferation assay (Promega #G5421). HCT116 cells were seeded in 96 well plates at 1×10^3 cells/well, and allowed to adhere overnight. They were treated with inhibitors for 72 hours. 20 μl of the tetrazolium dye MTS was added to each well and the plates were reincubated for 3 hours. Absorbance was then measured on a 96 well plate reader at […]. The IC50 values for HDAC inhibitors were determined by performing dose response curves with individual compounds and determining the concentration of inhibitor producing fifty percent decrease in maximal signal (diluent control). • (c) In Vitro Enzyme Assay of Histone Deacetylase Activity in Whole Cells

T1 sequence (Q13547 whole entry): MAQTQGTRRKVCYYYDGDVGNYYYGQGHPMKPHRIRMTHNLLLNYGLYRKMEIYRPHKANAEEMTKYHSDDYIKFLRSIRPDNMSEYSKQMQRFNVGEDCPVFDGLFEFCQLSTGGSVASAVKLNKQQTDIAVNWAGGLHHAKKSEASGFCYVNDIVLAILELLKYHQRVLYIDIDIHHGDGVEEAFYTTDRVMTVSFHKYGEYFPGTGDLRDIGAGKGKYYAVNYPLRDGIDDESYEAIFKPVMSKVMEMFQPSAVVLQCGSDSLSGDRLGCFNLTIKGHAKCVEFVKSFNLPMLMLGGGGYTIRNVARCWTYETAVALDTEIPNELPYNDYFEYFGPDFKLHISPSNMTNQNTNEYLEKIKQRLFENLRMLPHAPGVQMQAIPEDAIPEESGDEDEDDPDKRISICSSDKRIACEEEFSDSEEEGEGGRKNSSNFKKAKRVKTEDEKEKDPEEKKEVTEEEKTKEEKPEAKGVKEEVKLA

In the case of `Nc1ccccc1NC(=O)c1ccc(-c2ncc(CNCCN3CCCC3)cc2Cl)cc1` [2 (8), N-(2-aminophenyl)-4-(3-chloro-5-{[(2-pyrrolidin-1-ylethyl)amino]methyl}pyridin-2-yl)benzamide], the IC50 at recombinant human HDAC1 is 16 nM; in the experiment on HCT116 cells, 400 nM.

Consider `Nc1ccccc1NC(=O)c1ccc(-c2ncc(C(=O)NCCN3CCCC3)cc2Cl)cc1` [5 (1), N-(2-aminophenyl)-4-[3-chloro-5-(N-2-[pyrrolidin-1-yl]ethyl-carbamoyl)-pyridin-2-yl]benzamide], for which the IC50 came out at 9 nM on recombinant human HDAC1 and 220 nM in the experiment with HCT116 cells.

Take `CCCCNCc1cnc(-c2ccc(C(=O)Nc3ccccc3N)cc2)c(Cl)c1` [Example 1, N-(2-Aminophenyl)-4-{5-[(butylamino)methyl]-3-chloropyridin-2-yl}benzamide]: the IC50 turned out to be 9 nM on recombinant human HDAC1 and 160 nM with HCT116 cells.

Usually IC50 stands for the concentration at which inhibition is half-maximal.
